{"source": "patent US8129552B2", "about": "“Phospholipids with unsaturated alkyl and acyl chains” (Max-Planck-Gesellschaft zur Forderung der Wissenschaften …, priority 1998, dated 2012)", "key": {"cell culture": {"tested_on": "cell culture", "conditions": "cited from earlier work"}, "complex organisms": {"tested_on": "complex organisms", "conditions": "in vivo; cited from earlier work"}, "tumor [1]": {"tested_on": "tumor", "assay": "Antitumor activity of alkylphosphocholines: T/C and median tumor volume after therapy (Example 5)", "type": "in vivo", "conditions": "for T/C (quotient of the median tumor volume in the treated and the control group × 100): evaluation after therapy for 5 weeks", "excerpt": "Comparison of the Known Antitumor Active Ingredient Erucylphosphocholine with Active Ingredients of the Invention\nComparison of a compound not of the invention (erucylphosphocholine) with two active ingredients of the invention is shown in Table 1."}, "tumor [2]": {"tested_on": "tumor", "conditions": "evaluation after therapy for 5 weeks, cited from earlier work"}, "[3]": {"conditions": "rats; cited from earlier work"}, "[4]": {"conditions": "oral administration; cited from earlier work"}}, "note": "Where two headings read alike, the source gives them in different places."}
{"smiles": "CCCCCCCCCCCCCCCCCCOCC(COP(=O)([O-])OCC[N+](C)(C)C)OC", "note": "(racemic) [ET18-OCH3, 1-O-octadecyl-2-O-methyl-rac-glycero-3-phosphocholine]", "values": [{"measurement": "antineoplastic activity in cell-culture experiments", "setting": "cell culture", "value": "excellent antineoplastic activity"}, {"measurement": "activity in complex organisms", "setting": "complex organisms", "value": "virtually inactive"}]}
{"smiles": "CCCCCCCCCCC/C=C\\CCCCCCCCCOP(=O)([O-])OCC[N+](C)(C)C", "note": "[(Z)-10-Docosenyl-1-PC, (Z)-10-docosenyl-1-phosphocholine]", "values": [{"measurement": "Median tumor volume, 2 weeks later", "setting": "tumor [1]; dose 42 μmol/kg", "value": 4.5, "unit": "cm^3"}, {"measurement": "Median tumor volume, End of therapy", "setting": "tumor [1]; dose 42 μmol/kg", "value": 4.0, "unit": "cm^3"}, {"measurement": "Median tumor volume, 2 weeks later", "setting": "tumor [1]; dose 84 μmol/kg", "value": 3.4, "unit": "cm^3"}, {"measurement": "Median tumor volume, End of therapy", "setting": "tumor [1]; dose 84 μmol/kg", "value": 1.2, "unit": "cm^3"}, {"measurement": "Median tumor volume, 2 weeks later", "setting": "tumor [1]; dose 170 μmol/kg", "value": 0.2, "unit": "cm^3"}, {"measurement": "Median tumor volume, End of therapy", "setting": "tumor [1]; dose 170 μmol/kg", "value": 0.2, "unit": "cm^3"}, {"measurement": "Median tumor volume, 2 weeks later", "setting": "tumor [1]; dose 256 μmol/kg", "value": 0.2, "unit": "cm^3"}, {"measurement": "Median tumor volume, End of therapy", "setting": "tumor [1]; dose 256 μmol/kg", "value": 0.1, "unit": "cm^3"}, {"measurement": "T/C (quotient of the median tumor volume in the treated and the control group × 100)", "setting": "tumor [1]; weekly dose 42 μmol/kg", "value": 9, "unit": "%"}, {"measurement": "T/C (quotient of the median tumor volume in the treated and the control group × 100)", "setting": "tumor [1]; weekly dose 170 μmol/kg", "value": 0.5, "unit": "%"}, {"measurement": "T/C (quotient of the median tumor volume in the treated and the control group × 100)", "setting": "tumor [1]; weekly dose 256 μmol/kg", "value": 0.2, "unit": "%"}]}
{"smiles": "C=CCCCCCCCC/C=C\\CCCCCCCCCCOP(=O)([O-])OCC[N+](C)(C)C", "note": "[(Z)-11,21-Docosadienyl-1-PC, (Z)-11,21-docosadienyl-1-phosphocholine]", "values": [{"measurement": "Median tumor volume, 2 weeks later", "setting": "tumor [1]; dose 42 μmol/kg", "value": 2.5, "unit": "cm^3"}, {"measurement": "Median tumor volume, End of therapy", "setting": "tumor [1]; dose 42 μmol/kg", "value": 1.5, "unit": "cm^3"}, {"measurement": "Median tumor volume, 2 weeks later", "setting": "tumor [1]; dose 84 μmol/kg", "value": 2.9, "unit": "cm^3"}, {"measurement": "Median tumor volume, End of therapy", "setting": "tumor [1]; dose 84 μmol/kg", "value": 0.9, "unit": "cm^3"}, {"measurement": "Median tumor volume, 2 weeks later", "setting": "tumor [1]; dose 170 μmol/kg", "value": 0.5, "unit": "cm^3"}, {"measurement": "Median tumor volume, End of therapy", "setting": "tumor [1]; dose 170 μmol/kg", "value": 0.4, "unit": "cm^3"}, {"measurement": "T/C (quotient of the median tumor volume in the treated and the control group × 100)", "setting": "tumor [1]; weekly dose 42 μmol/kg", "value": 8, "unit": "%"}, {"measurement": "T/C (quotient of the median tumor volume in the treated and the control group × 100)", "setting": "tumor [1]; weekly dose 170 μmol/kg", "value": 2, "unit": "%"}]}
{"smiles": "CCCCCCCC/C=C\\CCCCCCCCCCCOP(=O)([O-])OCC[N+](C)(C)C", "note": "[(Z)-12-Heneicosenyl-1-phosphocholine, (Z)-12-heneicosenyl-1-phosphocholine]", "values": [{"measurement": "Median tumor volume, 2 weeks later", "setting": "tumor [1]; dose 42 μmol/kg", "value": 4.5, "unit": "cm^3"}, {"measurement": "Median tumor volume, End of therapy", "setting": "tumor [1]; dose 42 μmol/kg", "value": 3.4, "unit": "cm^3"}, {"measurement": "Median tumor volume, 2 weeks later", "setting": "tumor [1]; dose 84 μmol/kg", "value": 1.2, "unit": "cm^3"}, {"measurement": "Median tumor volume, End of therapy", "setting": "tumor [1]; dose 84 μmol/kg", "value": 0.3, "unit": "cm^3"}, {"measurement": "Median tumor volume, 2 weeks later", "setting": "tumor [1]; dose 170 μmol/kg", "value": 0.1, "unit": "cm^3"}, {"measurement": "Median tumor volume, End of therapy", "setting": "tumor [1]; dose 170 μmol/kg", "value": 0.1, "unit": "cm^3"}, {"measurement": "Median tumor volume, 2 weeks later", "setting": "tumor [1]; dose 256 μmol/kg", "value": 0.8, "unit": "cm^3"}, {"measurement": "Median tumor volume, End of therapy", "setting": "tumor [1]; dose 256 μmol/kg", "value": 0.2, "unit": "cm^3"}]}
{"smiles": "CCCCC/C=C\\CCCCCCCCCCCCCCCOP(=O)([O-])OCC[N+](C)(C)C", "note": "[(Z)-16-Docosenyl-1-phosphocholine, (Z)-16-docosenyl-1-phosphocholine]", "values": [{"measurement": "Median tumor volume, End of therapy", "setting": "tumor [1]; dose 42 μmol/kg", "value": 26.9, "unit": "cm^3"}, {"measurement": "Median tumor volume, 2 weeks later", "setting": "tumor [1]; dose 84 μmol/kg", "value": 7.6, "unit": "cm^3"}, {"measurement": "Median tumor volume, End of therapy", "setting": "tumor [1]; dose 84 μmol/kg", "value": 2.5, "unit": "cm^3"}, {"measurement": "Median tumor volume, 2 weeks later", "setting": "tumor [1]; dose 170 μmol/kg", "value": 0.4, "unit": "cm^3"}, {"measurement": "Median tumor volume, End of therapy", "setting": "tumor [1]; dose 170 μmol/kg", "value": 0.2, "unit": "cm^3"}]}
{"smiles": "CCCCCCC/C=C\\CCCC/C=C\\CCCCCOP(=O)([O-])OCC[N+](C)(C)C", "note": "[(Z,Z)-6,12-Eicosadienyl-1-PC, (Z,Z)-6,12-eicosadienyl-1-phosphocholine]", "values": [{"measurement": "Median tumor volume, 2 weeks later", "setting": "tumor [1]; dose 42 μmol/kg", "value": 13.9, "unit": "cm^3"}, {"measurement": "Median tumor volume, End of therapy", "setting": "tumor [1]; dose 42 μmol/kg", "value": 10, "unit": "cm^3"}, {"measurement": "Median tumor volume, 2 weeks later", "setting": "tumor [1]; dose 84 μmol/kg", "value": 13.9, "unit": "cm^3"}, {"measurement": "Median tumor volume, End of therapy", "setting": "tumor [1]; dose 84 μmol/kg", "value": 3.2, "unit": "cm^3"}, {"measurement": "Median tumor volume, 2 weeks later", "setting": "tumor [1]; dose 170 μmol/kg", "value": 1.9, "unit": "cm^3"}, {"measurement": "Median tumor volume, End of therapy", "setting": "tumor [1]; dose 170 μmol/kg", "value": 0.4, "unit": "cm^3"}, {"measurement": "Median tumor volume, 2 weeks later", "setting": "tumor [1]; dose 256 μmol/kg", "value": 0, "unit": "cm^3"}, {"measurement": "Median tumor volume, End of therapy", "setting": "tumor [1]; dose 256 μmol/kg", "value": 0, "unit": "cm^3"}]}
{"smiles": "CCCCC/C=C\\CCCC/C=C\\CCCCCCCCCOP(=O)([O-])OCC[N+](C)(C)C", "note": "[(Z,Z)-10,16-Docosadienyl-1-PC, (Z,Z)-10,16-docosadienyl-1-phosphocholine]", "values": [{"measurement": "Median tumor volume, 2 weeks later", "setting": "tumor [1]; dose 42 μmol/kg", "value": 11.4, "unit": "cm^3"}, {"measurement": "Median tumor volume, End of therapy", "setting": "tumor [1]; dose 42 μmol/kg", "value": 7.5, "unit": "cm^3"}, {"measurement": "Median tumor volume, 2 weeks later", "setting": "tumor [1]; dose 84 μmol/kg", "value": 0.6, "unit": "cm^3"}, {"measurement": "Median tumor volume, End of therapy", "setting": "tumor [1]; dose 84 μmol/kg", "value": 0.6, "unit": "cm^3"}, {"measurement": "Median tumor volume, 2 weeks later", "setting": "tumor [1]; dose 170 μmol/kg", "value": 0.7, "unit": "cm^3"}, {"measurement": "Median tumor volume, End of therapy", "setting": "tumor [1]; dose 170 μmol/kg", "value": 0.5, "unit": "cm^3"}]}
{"smiles": "CCCCCCCC/C=C\\CCCCCCCCCCCCOP(=O)([O-])OCC[N+](C)(C)C", "note": "[Erucylphosphocholine, erucylphosphocholine]", "values": [{"measurement": "T/C (quotient of the median tumor volume in the treated and the control group × 100)", "setting": "tumor [2]; weekly dose 90 μmol/kg", "value": 31, "unit": "%"}, {"measurement": "T/C (quotient of the median tumor volume in the treated and the control group × 100)", "setting": "tumor [2]; weekly dose 180 μmol/kg", "value": 6, "unit": "%"}, {"measurement": "T/C (quotient of the median tumor volume in the treated and the control group × 100)", "setting": "tumor [2]; weekly dose 360 μmol/kg", "value": "<0.1", "unit": "%"}]}
{"smiles": "CCCCCCCCCCCCCCCCOP(=O)([O-])OCC[N+](C)(C)C", "note": "[HePC, hexadecylphosphocholine]", "values": [{"measurement": "adverse effect of direct intravenous administration of a solution", "setting": "[3]", "value": "thrombophlebitis"}, {"measurement": "toxicity in clinical studies", "setting": "[4]", "value": "toxicities in the gastrointestinal tract"}]}
